Data reported in patent publication US20120288482A1, “THERAPEUTIC AGENT (Y-39983) FOR CORNEAL ENDOTHELIAL DYSFUNCTION” (priority 2009, published 2012).

Assays:
[1] = test system: cultured monkey corneal endothelial cells; conditions: in vitro; cited from earlier work
[2] = test system: corneal endothelial wound; assay: Rabbit corneal endothelial wound model, topical instillation (Example 1); format: in vivo; conditions: 10 mM instillation, 6 times a day, 46 hours after wound creation
Method: In this Example, 0.95 mM (0.03 w/v%) compound (I) instillation and 0.32 mM (0.01 w/v%) compound (I) instillation obtained by diluting the above instillation with the above-mentioned vehicle were used.
As a positive control substances, Y-27632 dihydrochloride (Wako Pure Chemical Industries, Co., Ltd., Cat. #253-00513) and fasudil hydrochloride hydrate injection (Eril (registered trade mark) drip intravenous injection, Asahi Kasei Pharma) were purchased, and Y-27632 and Fasudil were each adjusted to 10 mM with phosphate-buffered saline (PBS, Invitrogen, Cat. #14190). In addition, PBS was used as a negative control substance.
Male Japanese white rabbits (body weight 2.5-3.0 kg, 21 rabbits) were purchased from Biotek Co., Ltd. and used. They are kept in individual cages at 23±3° C. temperature, at 55±10% humidity and 12 hours artificial light cycle (lighting on; 8:00 a.m., lighting off; 8:00 p.m.). One hundred grams of solid food (Labo R stock; Nosan Corp.) are provided daily to each animal. Water is supplied by automatic watering apparatus.
3. Excision of Nictitating Membrane of Animal Before starting the test, the nictitating membrane of both eyes of the animal was excised. To be specific, each animal was set in a positioner, and the ocular surface was topically anesthetized by instillation of a topical anesthesia (Benoxil instillation 0.4%, Santen Pharmaceutical Co., Ltd.). Then, the root position of the nictitating membrane was pressed with a clamp for 30 sec, and compressing mark was cut with scissors. After excision of the nictitating membrane, the antibiotic ointment (tarivid eye ointment, Santen Pharmaceutical Co., Ltd.) was instilled to prevent infection. After 4 days from the excision of the nictitating membrane, animals confirmed to have no abnormality in the external eye including the excised site were used.
The corneal thickness of the right eye of each animal was measured with an ultrasonic pachymeter (manufactured by DGH Technologies Inc., DGH-500), and the animals were divided into 4 groups such that the corneal thickness of each group was equal. The animals used for each group were as follows. • 10 mM Y-27632 group=5 eyes • 0.32 mM compound (I) group=5 eyes • 0.95 mM compound (I) group=6 eyes • 10 mM Fasudil group=5 eyes • PBS group=21 eyes (left eye)
The animals were sytemically anesthetized by intramuscular administration of Ketalar muscular injection ([…], DAIICHI SANKYO COMPANY, LIMITED., 0.6 ml) and Celactal 2% Injection (Bayer, Ltd., 0.25 ml). Then, Benoxil instillation 0.4% (Santen Pharmaceutical Co., Ltd., one drop) was instilled and the eye was opened using a lid speculum.
A 7-mm diameter stainless dowel that had been cooled in liquid nitrogen was placed on the central cornea of both eyes of 21 animals for 15 sec. to produce an ice ball in the anterior chamber and dissociate corneal endothelial cells, whereby a corneal endothelial wound was produced.
For topical instillation, after wound creation, compound (I) instillation, Y-27632 instillation or Fasudil instillation was instilled to the right eye, and PBS was instilled to the left eye 6 times a day (4 times on the day of wound production) at 50 μL per instillation. Administration interval in one day was 2 hours. […]

O=S(=O)(c1cccc2cnccc12)N1CCCNCC1 [Fasudil]
apoptosis [1]: suppression of apoptosis
cell adhesion [1]: promotion of cell adhesion
cell cycle [1]: promotion of cell cycle
area of the unrepaired wound site (corneal endothelium wound area) [2]: 1.7 mm^2
